Molecules are shown by their SMILES. Counter-ions that a name gives are not always drawn. Bounds are passed on as bounds.

The target in this test is T1, human recombinant ENPP1 enzymes (Homo sapiens, UniProt P22413).
T1 construct: purchased R & D systems
T1 sequence (P22413 1-925): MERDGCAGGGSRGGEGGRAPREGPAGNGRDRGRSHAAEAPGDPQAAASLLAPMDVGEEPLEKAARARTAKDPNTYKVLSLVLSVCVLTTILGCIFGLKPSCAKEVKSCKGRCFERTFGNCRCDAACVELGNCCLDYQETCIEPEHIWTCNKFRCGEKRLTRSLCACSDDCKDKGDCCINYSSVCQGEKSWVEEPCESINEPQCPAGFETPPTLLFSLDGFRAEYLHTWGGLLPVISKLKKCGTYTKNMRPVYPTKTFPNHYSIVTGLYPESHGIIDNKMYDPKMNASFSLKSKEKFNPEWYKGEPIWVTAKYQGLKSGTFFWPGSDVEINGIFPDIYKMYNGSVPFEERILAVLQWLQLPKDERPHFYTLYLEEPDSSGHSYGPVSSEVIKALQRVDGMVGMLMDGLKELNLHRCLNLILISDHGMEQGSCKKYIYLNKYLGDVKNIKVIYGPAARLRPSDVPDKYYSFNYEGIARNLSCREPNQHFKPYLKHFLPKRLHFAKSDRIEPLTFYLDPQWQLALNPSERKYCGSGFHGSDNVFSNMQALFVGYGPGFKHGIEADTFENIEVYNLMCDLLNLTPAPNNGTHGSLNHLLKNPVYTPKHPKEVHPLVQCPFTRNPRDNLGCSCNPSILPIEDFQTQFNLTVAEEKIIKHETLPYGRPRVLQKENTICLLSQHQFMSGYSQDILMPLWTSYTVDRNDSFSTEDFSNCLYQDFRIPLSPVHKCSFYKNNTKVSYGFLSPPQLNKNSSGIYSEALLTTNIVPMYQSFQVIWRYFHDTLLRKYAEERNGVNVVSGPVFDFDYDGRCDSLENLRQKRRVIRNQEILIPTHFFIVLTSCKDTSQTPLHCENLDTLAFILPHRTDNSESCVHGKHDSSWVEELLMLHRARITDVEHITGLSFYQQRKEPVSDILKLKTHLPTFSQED
Description: ENPP1 Enzyme Assay with cGAMP Substrate (AMP-Glo). Type of test: biochemical. As to conditions: human recombinant ENPP1, cGAMP 5 μM, 37° C. 90 minutes, AMP-Glo luminescence; read-out: Enzymatic activity (IC50). The protocol: ENPP1 hydrolyzes nucleotides or nucleotide derivatives to produce nucleoside-5′-monophosphate and pyrophosphate. In addition, ENPP1 hydrolyzes 2′,3′-cGAMP to produce 5′-adenosine monophosphate (AMP) and 5′-guanosine monophosphate (GMP). AMP produced from the reaction is measured using the AMP-Glo® kit (Promega). The AMP-Glo® kit contains two reagents. The first reagent terminates the AMP-producing enzymatic reaction, removes ATP and converts the produced AMP into ADP. The second reagent converts ADP into ATP which is used to generate luminescence in the luciferase reaction. The amount of luminescence measured is proportional to the amount of AMP produced by ENPP1.
The final reaction solution contains 50 mM Tris (pH 8.5) buffer, 250 mM NaCl, 0.5 mM CaCl2), 1 μM ZnCl2, 5% glycerol and 1% DMSO. Serially diluted ENPP1 inhibitors (typically in the range of 10 μM to 0.5 nM) were pre-stored with human recombinant ENPP1 enzymes (R & D systems) at 3 ng/reaction and room temperature (RT) for 5 to 10 minutes. The reaction was initiated by addition of cGAMP (at a final concentration of 5 μM) and reacted at 37° C. for 90 minutes. At the end of the reaction, 10 μl of the AMP-Glo first reagent was added to stop the reaction and the result was stored at room temperature for 1 hour. After storage, 20 μl of an AMP detection solution (a mixture of AMP-Glo II reagent and Kinase-Glo at a ratio of 1:100) was added and stored at room temperature for 1 hour. Luminescence signals were measured using a Victor® plate reader (Perkin Elmer). The maximal activity control (containing enzymes and substrates in the presence of 1% DMSO; MAX) and the minimal activity control (containing substrates and 1% DMSO; MIN) were evaluated simultaneously. In each experiment, serially diluted reference ENPP1 inhibitors were tested as well. IC50, indicating % residual activity versus compound concentration was determined by fitting inhibition curves using the 3-parameter analysis of GraphPad Prism® software. Serially diluted samples of one compound were tested two or more times and an average IC50 of each compound was calculated.
Usually IC50 stands for the point on the concentration scale where inhibition reaches its midpoint. Take `COc1ccc2c(c1)nnn2-c1ccc2c(c1)CN(S(N)(=O)=O)C2` [Example 94, 5-(5-methoxy-1H-benzo[d][1,2,3]triazol-1-yl)isoindoline-2-sulfonamide]: the half-inhibitory concentration (IC50) is below 1000 nM. Take `COc1ccc2c(c1)nnn2-c1ccc(CN(C2CC2)S(N)(=O)=O)cc1` [Example 82, N-cyclopropyl-N-(4-(5-methoxy-1H-benzo[d][1,2,3]triazol-1-yl)benzyl)sulfamide]: the IC50 is below 1000 nM. Take `CC(F)(F)c1ccc2c(c1)nnn2-c1ccc(CN)cc1F` [Example 22]: the IC50 is above 10000 nM. `COc1ccc2c(c1)nnn2C1CCN(S(N)(=O)=O)CC1` [Example 42, 4-(5-methoxy-1H-benzo[d][1,2,3]triazol-1-yl)piperidine-1-sulfonamide]: the IC50 was above 10000 nM.

Regarding `COc1ccc2c(c1)nnn2-c1cc(F)c(CN)c(F)c1` [Example 18], the IC50 is above 10000 nM. With `COc1ccc2c(c1)nnn2-c1ccc(CN(C)S(N)(=O)=O)cc1F` [Example 81, N-(3-fluoro-4-(5-methoxy-1H-benzo[d][1,2,3]triazol-1-yl)benzyl)-N-methylsulfamide], the 50% inhibitory concentration (IC50) was below 1000 nM. `COc1ccc2c(c1)nnn2-c1ccc(CNS(N)(=O)=O)cc1Cl` [Example 59, N-(3-chloro-4-(5-methoxy-1H-benzo[d][1,2,3]triazol-1-yl)benzyl)sulfamide]: the IC50 is below 1000 nM. As to `COc1ccc2c(c1)nnn2-c1ccc([C@H](C)NS(N)(=O)=O)cc1` [Example 83, (S)—N-(1-(4-(5-methoxy-1H-benzo[d][1,2,3]triazol-1-yl)phenyl)ethyl)sulfamide], the IC50 was below 1000 nM.

For `NCc1ccc(-n2nnc3cc(OCF)ccc32)c(F)c1` [Example 23], the IC50 is above 10000 nM.

For `COc1ccc2c(c1)nnn2C1CCN(CCS(N)(=O)=O)CC1` [Example 44, 2-(4-(5-methoxy-1H-benzo[d][1,2,3]triazol-1-yl)piperidin-1-yl)ethane-1-sulfonamide], the IC50 was below 1000 nM.

As to `COc1ccc2nn(Cc3ccc(NS(N)(=O)=O)cc3)nc2c1` [Example 109, Hydrochloride], the IC50 is 1000 to 10000 nM.

For the molecule `CCOc1ccc2c(c1)nnn2-c1ccc(CN)cc1F` [Example 19], the half-maximal inhibitory concentration (IC50) is above 10000 nM. The value for `COc1ccc2c(c1)nnn2-c1ccc(CNS(N)(=O)=O)cc1F` [Example 61, N-(4-(5-methoxy-1H-benzo[d][1,2,3]triazol-1-yl)-3-fluorobenzyl)sulfamide] was below 1000 nM. The value for `NS(=O)(=O)NCc1ccc(-n2nnc3cc(C(F)(F)F)ccc32)cc1` [Example 84] was above 10000 nM. As for `NCc1ccc(-n2nnc3ccccc32)cc1` [Example 5, 4-(1H-benzo[d][1,2,3]triazol-1-yl)phenyl)methanamine Hydrochloride], the half-inhibitory concentration (IC50) was below 1000 nM. Turning to `NS(=O)(=O)NCc1ccc(-n2nnc3cc(O)ccc32)c(F)c1` [Example 74, N-(3-fluoro-4-(5-hydroxy-1H-benzo[d][1,2,3]triazol-1-yl)benzyl)sulfamide], the half-inhibitory concentration (IC50) is below 1000 nM. The figure for `CC(C)Oc1ccc2c(c1)nnn2-c1ccc(CNS(N)(=O)=O)cc1F` [Example 77, N-(3-fluoro-4-(5-isopropoxy-1H-benzo[d][1,2,3]triazol-1-yl)benzyl)sulfamide] is above 10000 nM. As for `COc1ccc2c(c1)nnn2-c1ccc(CNS(N)(=O)=O)c(F)c1F` [Example 65, N-(2,3-difluoro-4-(5-methoxy-1H-benzo[d][1,2,3]triazol-1-yl)-benzyl)sulfamide], the half-inhibitory concentration (IC50) was below 1000 nM. The figure for `COc1cccc2nnn(-c3ccc(CNS(N)(=O)=O)cc3)c12` [Example 53, N-(4-(7-methoxy-1H-benzo[d][1,2,3]triazol-1-yl)benzyl)sulfamide] is above 10000 nM. The value for `COc1ccc2c(c1)nnn2-c1ccc(CNS(N)(=O)=O)c(F)c1` [Example 60, N-(2-fluoro-4-(5-methoxy-1H-benzo[d][1,2,3]triazol-1-yl)benzyl)sulfamide] was below 1000 nM; that for `COc1ccc2c(c1)nnn2-c1ccc(CNS(N)(=O)=O)cc1C` [Example 66, N-(4-(5-methoxy-1H-benzo[d][1,2,3]triazol-1-yl)-3-methylbenzyl)sulfamide] was below 1000 nM. Turning to `COc1ccc2c(c1)nnn2-c1ccc2c(c1)CCN(S(N)(=O)=O)C2` [Example 96, 6-(5-methoxy-1H-benzo[d][1,2,3]triazol-1-yl)-3,4-dihydroisoquinoline-2(1H)sulfonamide], the 50% inhibitory concentration (IC50) was below 1000 nM. The figure for `COc1ccc2c(c1)nnn2-c1ccc(NS(N)(=O)=O)cc1` [Example 48, N-(4-(5-methoxy-1H-benzo[d][1,2,3]triazol-1-yl)phenyl)sulfamide Hydrochloride] is below 1000 nM. The value for `NS(=O)(=O)NCc1ccc(-n2nnc3cc(OC(F)F)ccc32)c(F)c1` [Example 91] was below 1000 nM; that for `COc1ccc2c(c1)nnn2C12CC(CN)(C1)C2` [Example 30] was above 10000 nM. The value for `COc1ccc2nnn(-c3ccc(CN)cc3)c2c1` [Example 7, 4-(6-methoxy-1H-benzo[d][1,2,3]triazol-1-yl)phenyl)methanamine Hydrochloride] was above 10000 nM; that for `COc1cc2nnn(-c3ccc(CNS(N)(=O)=O)cc3F)c2cc1C` [Example 70, N-(3-fluoro-4-(5-methoxy-6-methyl-1H-benzo[d][1,2,3]triazol-1-yl)benzyl)sulfamide] was below 1000 nM.

On to `NS(=O)(=O)NCc1ccc(-n2nnc3cc(OC(F)(F)F)ccc32)c(F)c1` [Example 90], for which the IC50 was above 10000 nM.

`COc1ccc2c(c1)nnn2-c1ccc(CNC2CC2)cc1` [Example 13, N-(4-(5-methoxy-1H-benzo[d][1,2,3]triazol-1-yl)-benzyl)cyclopropanamine Hydrochloride]: the half-maximal inhibitory concentration (IC50) was above 10000 nM.

Consider `COc1ccc2c(c1)nnn2-c1cccc(CCN)c1` [Example 11, 2-(3-(5-methoxy-1H-benzo[d][1,2,3]triazol-1-yl)phenyl)ethan-1-amine Hydrochloride], for which the IC50 is above 10000 nM. In the case of `COc1ccc2c(c1)nnn2-c1ccc(CN(C)S(N)(=O)=O)cc1` [Example 80], the IC50 was below 1000 nM. On to `NS(=O)(=O)NCc1ccc(-n2nnc3cc(OC(F)(F)F)ccc32)cc1` [Example 89], for which the IC50 was above 10000 nM.

The values are drawn from patent publication US20240116882A1, “NOVEL BENZOTRIAZOLE DERIVATIVE HAVING INHIBITORY ACTIVITY AGAINST ECTONUCLEOTIDE PYROPHOSPHATASE-PHOSPHODIESTERASE, AND USE THEREOF” (TXINNO BIOSCIENCE INC., priority 2021, published 2024).
